# Entries after “also recorded” stand apart in the source; their conditions may differ.
# Experiments:
# [1] = two-solution preference behavioral assay, artificial sweetener (AceK) versus sucrose, naive animals; assay type: in vivo, mice
# Source text: To explicitly test for sugar preference in mice, applicants developed a simple behavioral assay.
# During five minute trials, two groups of five naive animals were presented with an intensely sweet, artificial compound (Acesulfame potassium or AceK) and a less sweet natural sugar (sucrose) . […] Animals were then returned to their home cage and given access to either artificial sweetener (Group 1) or natural sugar (Group 2) for one hour. […] Twenty four hours later, Group 1 was given natural sugar while Group 2 was given artificial sweetener.
# [2] = system: neurons in the caudal nucleus of the solitary tract (cNST); assay: cFos staining of the caudal nucleus of the solitary tract after drinking the solution; assay type: in vivo, mice; settings: for cFos labeling of cNST neurons: wild-type animals, water deprived thirty-six hours, 1 mL solution by drinking
# Method: To determine where sugar preference is encoded, applicants screen brain regions for increased expression of Fos, a proxy for neural activity, in animals challenged with sugar but not water or artificial sweetener.
# Wild-type animals were water deprived for thirty-six hours and then given access to 1 mL solution of water (FIG. 3A), sucrose (FIG. 3), or artificial sweetener (FIG. 3C). Tasteless (TrpM5 knockout) animals were given water (FIG. 3D) or sucrose (FIG. 3E), The caudal nucleus of the solitary tract was analyzed using cFos staining. […] Green: c-fos antibody staining. Magenta: a neural stain (neurotrace) (FIG. 3A-3D).
# [3] = system: neurons in the caudal nucleus of the solitary tract (cNST); assay: cFos staining of the nucleus of the solitary tract after direct infusion to the gut; assay type: in vivo; settings: for Fos expression in the cNST when gavaged: gavage, compared with animals drinking the same solution; for cFos labeling of cNST neurons after gut infusion: wild type animals, 0.5 mL infused directly into the gut
# Method: Wild type animals were infused directly into the gut with 0.5 mL of water (FIG. 4A), sucrose (FIG. 4B), or artificial sweetener (FIG. 4C). […] Green: c-fos antibody staining. Magenta; a neural stain (neurotrace) (FIG. 4A-4C).
# [4] = consumption trials of sucralose with or without MDG in a satiated animal; assay type: in vivo; settings: 32 mM sucralose+0.4 M MDG vs 32 mM sucralose alone, 20 trials
# Method: A satiated animal was given 32 mM sucralose for the first 11 trials, and then given either 32 mM sucralose alone, or 32 mM sucralose+0.4 M MDG. […] Shown are 20 trials.
# activity in the cNST = assay: silencing of cNST activity by cannula injection during sucrose exposure, sugar preference formation; assay type: in vivo
# Source text: When given a choice between highly concentrated artificial sweetener and a low concentration of natural sweet, animals consume the sweeter substance. However, after one exposure to natural sugar, animals switch their preference to the natural sweet (See FIG. 5). If the cNST is indeed an essential brain center for establishing sugar preference, a prediction would be that silencing the activity of the neurons in this nucleus during exposure to sugar should prevent a preference from forming. To determine if this is the case, applicants implanted a cannula above the cNST of naive animals, waited 2 weeks for recovery, and then assessed the ability of these animals to form a sugar preference. […] Prior to receiving sugar in their home cage, animals were injected with a glutamate receptor antagonist (50 nL of NBQX, […]) to reversibly silence activity in the cNST.
smiles,measurement,setting,value
"CC1=CC(=O)NS(=O)(=O)O1 [AceK, Acesulfame potassium]","initial consumption, AceK versus sucrose","[1]; five minute trials, naive animals, before home-cage exposure",much more AceK than sucrose
same,cFos labeling of cNST neurons,[2],almost no labeled cells at all
same,Fos expression in the cNST when gavaged,[3],identical
same,cFos labeling of cNST neurons after gut infusion,[3],almost no labeled cells at all
"COC1OC(CO)C(O)C(O)C1O [MDG, Alpha-Methyl-D-Glucopyranose]",appetitiveness/consumption of sucralose,[4],dramatically increases the appetitiveness/consumption of sucralose; also recorded: transforms a sucralose solution into the preferred Artificial Sweetener
NS(=O)(=O)c1cccc2c1c([N+](=O)[O-])cc1nc(O)c(O)nc12 [NBQX],formation of sugar preference with the cNST silenced,"activity in the cNST; 50 nL of NBQX, 5 pg/mL, injected above the cNST prior to sugar in home cage, tested twenty-four hours later",continued to prefer the artificial sweetener
same,sugar preference formation after washout,activity in the cNST; after the drug washed out,regained their ability to form a preference
same,effect of silencing on sweet taste,"activity in the cNST; short-access assays, same animals",does not abolish sweet taste
OC[C@H]1O[C@@](CO)(O[C@H]2O[C@H](CO)[C@@H](O)[C@H](O)[C@H]2O)[C@@H](O)[C@@H]1O [sucrose],preference between artificial sweetener and sucrose after exposure to sucrose,"[1]; after one hour home-cage access to natural sugar, final preference test",animals change preference between artificial sweetener and sucrose after one exposure to sucrose; also recorded: both groups prefer the natural sugar
same,cFos labeling of cNST neurons in tasteless animals,"[2]; TrpM5 knockout animals, compared with wild type",identical pattern of labeling
same,cFos labeling of cNST neurons,[2],robustly labeled
same,Fos expression in the cNST when gavaged,[3],identical
same,cFos labeling of cNST neurons after gut infusion,[3],robustly labeled
